From EP0343830A2, “Ring-substituted 2-amino-1,2,3,4-tetrahydronaphthalenes” (ELI LILLY AND COMPANY, priority 1988, dated 1989) come the findings set out here.

The IC50 is the concentration at which inhibition is half-maximal.

In this assay the target is T1, 5HT UPTAKE (Rattus norvegicus, UniProt P31652).
T1 construct: Crude synaptosomal preparations were isolated after differential centrifugation; from tissue; host or cells: rat cerebral cortex, crude synaptosomes
Nature of the assay: Inhibition of synaptosomal uptake of 3H-serotonin (3H-5HT) in vitro, rat cerebral cortex synaptosomes. The class given is biochemical, Sprague-Dawley rats. The settings on record: concentration needed to inhibit the uptake of 3H-5HT by 50%; rat cortical synaptosomes, 37°C, 5 min, 50 nM 3H-5HT. How it is done:
This general procedure is set forth in Wong et al., Drug Development Research 6:397-403 (1985).
Male Sprague-Dawley rats (110-150 g) from Harlan Industries (Cumberland, IN) were fed Purina Chow ad libitum for at least 3 days before being used in the studies. Rats were killed by decaptiation. Whole brains were removed and dissected. Cerebral cortex was homogenized in 9 volumes of a medium containing 0.32 M sucrose and 10 mM glucose. Crude synaptosomal preparations were isolated after differential centrifugation at 1,000 g for 10 min. and 17,000 g for 28 min. The final pellets were suspended in the same medium and kept in ice until use within the same day.
Synaptosomal uptake of ³H-serotonin (³H-5-hydroxytryptamine, ³H-5HT) was determined as follows: Cortical synaptosomes (equivalent to 1 mg of protein) were incubated at 37°C for 5 min in 1 ml of Krebs-bicarbonate medium containing also 10 mM glucose, […], 1 mM ascorbic acid, 0.17 mM EDTA and 50 nM ³H-5HT. The reaction mixture was immediately diluted with 2 ml of ice-chilled Krebs-bicarbonate buffer and filtered under vacuum with a cell harvester (Brandel, Gaithersburg, MD). Filters were rinsed twice with approximately 5 ml of ice-chilled 0.9% saline and were transferred to a counting vial containing 10 ml of scintillation fluid (PCS, Amersham, Arlington Heights, IL). Radioactivity was measured by a liquid scintillation spectrophotometer. Accumulation of ³H-5HT at 4°C represented the background and was subtracted from all samples.
The results of the evaluation of various compounds of the present invention are set forth below in Table I. In Table I, the first column provides the Example Number of the compound evaluated; the next 7 columns identify the structure of the compound evaluated when taken with the formula set forth in the heading; the next-succeeding column identifies the salt form of the compound evaluated; and the final column provides the amount of the test compound expressed in nanomolar concentration needed to inhibit the uptake of ³H-5HT by 50%, and is indicated in Table I as IC₅₀. Numbers in parentheses, if any, represent percent inhibition at 1000 nM.

Structures can show the parent of a compound that is named as a salt.

T1 sequence (P31652 whole entry): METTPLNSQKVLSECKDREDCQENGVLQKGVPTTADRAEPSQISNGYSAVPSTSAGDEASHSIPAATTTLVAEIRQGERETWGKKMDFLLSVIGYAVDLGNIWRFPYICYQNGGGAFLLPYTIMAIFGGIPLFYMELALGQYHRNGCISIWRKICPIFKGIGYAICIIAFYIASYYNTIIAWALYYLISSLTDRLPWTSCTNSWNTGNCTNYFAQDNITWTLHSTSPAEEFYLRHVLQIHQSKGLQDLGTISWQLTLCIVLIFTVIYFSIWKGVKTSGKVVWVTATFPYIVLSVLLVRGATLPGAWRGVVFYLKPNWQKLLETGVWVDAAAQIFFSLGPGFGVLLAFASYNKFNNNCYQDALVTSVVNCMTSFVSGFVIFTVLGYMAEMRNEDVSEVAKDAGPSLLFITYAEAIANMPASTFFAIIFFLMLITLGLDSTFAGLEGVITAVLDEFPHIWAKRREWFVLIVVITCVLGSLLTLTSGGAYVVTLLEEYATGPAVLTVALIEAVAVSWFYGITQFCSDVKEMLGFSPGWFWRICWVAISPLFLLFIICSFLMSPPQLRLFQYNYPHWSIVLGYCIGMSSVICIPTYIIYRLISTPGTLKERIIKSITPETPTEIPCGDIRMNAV

Consider `COc1ccc(C#N)c2c1CC(N1CCN(C)CC1)CC2` (stereo not shown) [Example 24, 2-(N-methylpiperazinyl)-5-cyano-8-methoxy-1,2,3,4-tetrahydronaphthalene dihydrochloride], for which the midpoint of inhibition, the IC50, lay at 12 nM.
